Results on 13 molecules are retold here after ChEMBL document CHEMBL1124518, “Nonsteroidal cardiotonics. 2. The inotropic activity of linear, tricyclic 5-6-5 fused heterocycles” (1989).

For assay [1], the system named is Rattus norvegicus. Put plainly: Maximum increase in dP/dt when administered intravenously in rats at 0.1 mg/kg dose. It is filed as functional. Conditions: route intravenous.
For assay [2], the system named is Canis familiaris. Description: Amount of time during which increase in administered orally in conscious dogs at 1 mg/kg. Conditions: route oral. The class given is functional, Canis lupus familiaris.
Assay [3] is filed under the species Rattus norvegicus. Description: Effective dose required to produce an increase in dP/dt5 by 1500 mmHg/s in rats. It is filed as functional.
Assay [4] deals with Felis catus. Description: Maximum increase in dP/dt when administered intravenously in cats at 0.1 mg/kg dose. The class given is functional. Particulars: route intravenous.
In assay [5] the test system is Canis familiaris. Description: Time after which maximum increase in contractility was observed when administered orally in conscious dogs at 1 mg/kg. The class given is functional, Canis lupus familiaris. Conditions: route oral.
Assay [6] is filed under the species Felis catus. Put plainly: Effective dose required to produce an increase in dP/dt5 by 1500 mmHg/s in cats. The class given is functional.
Assay [7] concerns Rattus norvegicus. Description: Maximum increase in dP/dt when administered intravenously in rats at 10 mg/kg dose. It is filed as functional. Also noted: unit not given here. Particulars: route intravenous.
Assay [8] deals with Felis catus. Description: Maximum increase in dP/dt when administered intravenously in cats at 0.3 mg/kg dose. It is filed as functional. Particulars: route intravenous.
Assay [9] concerns Rattus norvegicus. Description: Maximum increase in dP/dt when administered intravenously in rats at 3 mg/kg. The class given is functional. Particulars: route intravenous.
Assay [10] concerns Felis catus. Description: Maximum increase in dP/dt when administered intravenously in cats at 3 mg/kg. The class given is functional. Conditions: route intravenous.
For assay [11], the system named is Canis familiaris. Description: Maximum increase in dP/dt when administered intravenously in dogs at 1 mg/kg dose. It is filed as functional, Canis lupus familiaris. Particulars: route intravenous.
For assay [12], the species on record is Canis familiaris. Put plainly: Effective dose required to produce an increase in dP/dt5 by 1500 mmHg/s in dogs. It is filed as functional, Canis lupus familiaris.
Assay [13] has as its system Canis familiaris. Description: Maximum increase in dP/dt when administered intravenously in dogs at 1 mg/kg. It is filed as functional, Canis lupus familiaris. Conditions: route intravenous.
Assay [14] concerns Canis familiaris. Description: Maximum increase in dP/dt when administered intravenously in dogs at 0.1 mg/kg. It is filed as functional, Canis lupus familiaris. Particulars: route intravenous.
Assay [15] has as its system Canis familiaris. Put plainly: Maximum increase in dP/dt60 when administered orally in dogs at dose 1 mg/kg. It is filed as functional, Canis lupus familiaris. Particulars: route oral.
In assay [16] the test system is Felis catus. Put plainly: Maximum increase in dP/dt when administered intravenously in cats at 0.03 mg/kg dose. Particulars: route intravenous. The class given is functional.
The subject of assay [17] is Canis familiaris. Description: Maximum increase in dP/dt60 when administered orally in dogs at dose 0.3 mg/kg. It is filed as functional, Canis lupus familiaris. Conditions: route oral.
In assay [18] the test system is Canis familiaris. Put plainly: Amount of time during which increase in administered orally in conscious dogs at 0.3 mg/kg. Particulars: route oral. It is filed as functional, Canis lupus familiaris.
In assay [19] the test system is Canis familiaris. Put plainly: Time after which maximum increase in contractility was observed when administered orally in conscious dogs at 0.5 mg/kg. The class given is functional, Canis lupus familiaris. Conditions: route oral.
Assay [20] has as its system Felis catus. Description: Maximum increase in dP/dt when administered intravenously in cats at 3 mg/kg dose. It is filed as functional. Conditions: route intravenous.
The subject of assay [21] is Canis familiaris. Description: Maximum increase in dP/dt when administered intravenously in dogs at 0.3 mg/kg dose. The class given is functional, Canis lupus familiaris. Particulars: route intravenous.
Assay [22] has as its system Rattus norvegicus. Put plainly: Maximum increase in dP/dt when administered intravenously in rats at 1 mg/kg dose. The class given is functional. Also noted: unit not given here. Particulars: route intravenous.
The subject of assay [23] is Canis familiaris. Description: Maximum increase in dP/dt60 when administered orally in dogs at dose 0.5 mg/kg. The class given is functional, Canis lupus familiaris. Conditions: route oral.
The subject of assay [24] is Canis familiaris. Put plainly: Amount of time during which increase in administered orally in conscious dogs at 0.5 mg/kg. It is filed as functional, Canis lupus familiaris. Conditions: route oral.
For assay [25], the system named is Rattus norvegicus. Description: Maximum increase in dP/dt when administered intravenously in rats at 1 mg/kg. It is filed as functional. Particulars: route intravenous.
Assay [26] deals with Rattus norvegicus. Put plainly: Maximum increase in dP/dt when administered intravenously in rats at […] dose. It is filed as functional.
The subject of assay [27] is Rattus norvegicus. Put plainly: Maximum increase in dP/dt when administered intravenously in rats Value in parenthesis denotes dose at which test performed. It is filed as functional.
Assay [28] relates to Canis familiaris. Description: Maximum increase in dP/dt when administered intravenously in dogs at 0.03 mg/kg dose. It is filed as functional, Canis lupus familiaris. Particulars: route intravenous.
Assay [29] relates to Felis catus. Description: Maximum increase in dP/dt when administered intravenously in cats at 0.3 mg/kg. Conditions: route intravenous. It is filed as functional.

Take `Cn1c(O)nc2cc3c(cc21)C(C)(C)C(=O)N3`: the figures for the Max in assay [1] and in assay [4] were 2.4 mmHg s-1 and 2.1 mmHg s-1, respectively. Further, the Duration in assay [2] was over 5 h. Also, the results for the ED1.5 in assay [3] and in [6] were 0.03 mg/kg and 0.02 mg/kg, respectively. The molecule also showed a Time in assay [5] of 30 min.
Consider `CC1(C)C(=O)Nc2cc3[nH]c(-c4cnccn4)nc3cc21`, for which the Max in [7] was determined as 2.6; in [8], 2.7 mHg/s. Besides, the values for the ED1.5 in assay [3] and in assay [6] were 0.1 mg/kg and 0.04 mg/kg, respectively.
On to `CCn1c(O)nc2cc3[nH]c(-c4ccncc4)nc3cc21`, for which the Duration in assay [2] stood at 0 h. Besides, the Max in [9] is listed as 2.3 mmHg s-1; in [4], 3.1 mmHg s-1. The ED1.5 in assay [3] was found to be 0.05 mg/kg; in assay [6] it was 0.007 mg/kg.
As for `Cc1nc2cc3c(cc2[nH]1)C(C)(C)C(=O)N3`, the Max is 3.5 in [7], 2.8 mHg/s in [10] and 2.2 mHg s-1 in [11]. In assay [2], this molecule displayed a Duration of 3 h. For the same molecule, the ED1.5 in assay [3] worked out at 0.48 mg/kg; in [12], 0.46 mg/kg; in assay [6], 0.17 mg/kg. For the same molecule, in assay [5], the Time is recorded as 30 min.
Take `Cn1c(O)nc2cc3[nH]c(-c4ccncc4)nc3cc21`: the Max is recorded as 2.6 in [7] and 2.9 mmHg s-1 in [13]. For the same molecule, in assay [2], the Duration was 0 h. The ED1.5 came out at 0.33 mg/kg in assay [3], 0.12 mg/kg in [12] and 0.01 mg/kg in [6].
For the molecule `CC1(C)C(=O)Nc2cc3[nH]c(-c4ccnnc4)nc3cc21`, the Duration in assay [2] worked out at 5 h. Further, the figures for the ED1.5 in [3], in assay [12] and in assay [6] were 0.04 mg/kg, 0.035 mg/kg and 0.01 mg/kg, respectively. For the same molecule, the results for the Max in assay [14], in [15] and in [16] were 2.6 mmHg s-1, 2.3 mmHg s-1 and 2.4 mmHg s-1, respectively. Besides, the Time in assay [5] stood at 150 min.
With `CC1(C)C(=O)Nc2ccc(C3=NNC(=O)CC3)cc21` [INDOLIDAN], the Max in [17] amounted to 2.8 mmHg s-1. The molecule further gave a Duration in assay [18] of over 6 h. The Time in [5] is given as 45 min.
As to `CC1(C)C(=O)Nc2cc3[nH]c(O)nc3cc21`, the figures for the Time in assay [19] and in assay [5] were 60 min and 45 min, respectively. In addition, the Duration in assay [2] was over 6 h; in [24], 6 h. Besides, the Max in [20] came to 2.9 mmHg s-1; in [21], 2 mHg/s; in [22], 3; in assay [23], 1.6 mHg s-1. Also, the ED1.5 in [3] was 0.13 mg/kg; in assay [12] it was 0.12 mg/kg; in [6], 0.08 mg/kg.
Turning to `CC(C)c1nc2cc3c(cc2[nH]1)C(C)(C)C(=O)N3`, in assay [2], the Duration was 3 h. In addition, the ED1.5 in assay [3] is 0.22 mg/kg; in assay [12], 0.46 mg/kg; in [6], 0.09 mg/kg. For the same molecule, the Max in [11] is 1.9 mHg s-1; in assay [25], 2.3 mmHg s-1; in [15], 2.2 mmHg s-1. In [5], this molecule returned a Time of 30 min.
Consider `CC1(C)C(=O)Nc2cc3[nH]c(O)cc3cc21`, for which the ED1.5 in [3] is 0.11 mg/kg. The Max in assay [26] amounted to 2 mmHg s-1.
In [3], `CC1(C)C(=O)Nc2cc3[nH]nnc3cc21` displayed an ED1.5 of 0.18 mg/kg. Besides, the Max in [27] is on record as 2.6 mmHg s-1.
In the case of `CC1(C)C(=O)Nc2cc3[nH]c(-c4cnsn4)nc3cc21`, the Duration in [2] is 3 h. The ED1.5 in [3] amounted to 0.007 mg/kg; in [12] it was 0.008 mg/kg; in assay [6], 0.004 mg/kg. Further, the Max in assay [28] was 2.3 mmHg s-1; in assay [22], 3.5; in assay [4], 2.6 mmHg s-1; in [15] it was 3 mmHg s-1. The Time in [5] is listed as 10 min.
As for `CCCc1nc2cc3c(cc2[nH]1)C(C)(C)C(=O)N3`, the results for the ED1.5 in assay [3] and in assay [6] were 0.17 mg/kg and 0.12 mg/kg, respectively. The Max in assay [22] is listed as 2.5; in assay [29], 2 mmHg s-1.
